From the NIST ThermoML archive (doi:10.1021/je8007217)

Key:
[1] = 298.15 K, 101 kPa, Liquid; for viscosity: Capillary tube (Ostwald / Ubbelohde) method; for mass density: Pycnometric method
[2] = xn = mol fraction of the nth substance listed; conditions: 298.15 K, 101 kPa, Liquid; for viscosity: Capillary tube (Ostwald / Ubbelohde) method; for mass density: Pycnometric method

C1CCCCC1 [cyclohexane]
[1]
Conditions | mass density [kg/m3] | viscosity [mPa·s]
– | 773.8 | 0.892

C1CCCCC1 [cyclohexane] + CCCOC(C)=O
[2], x1 = 1
Conditions | mass density [kg/m3] | viscosity [mPa·s]
– | 773.8 | 0.892

C1CCCCC1 [cyclohexane] + CCOC(C)=O
[2], x1 = 1
Conditions | mass density [kg/m3] | viscosity [mPa·s]
– | 773.8 | 0.892

C1CCCCC1 [cyclohexane] + COC(C)=O
[2], x1 = 1
Conditions | mass density [kg/m3] | viscosity [mPa·s]
– | 773.8 | 0.892

C1CCCCC1 [cyclohexane] + O=C1CCCCC1
[2], x1 = 1
Conditions | mass density [kg/m3] | viscosity [mPa·s]
– | 773.8 | 0.892

O=C1CCCCC1 [cyclohexanone]
[1]
Conditions | mass density [kg/m3] | viscosity [mPa·s]
– | 941.6 | 2.02

O=C1CCCCC1 [cyclohexanone] + C1CCCCC1
[2]
Conditions | mass density [kg/m3] | viscosity [mPa·s]
x2 = 0 | 941.6 | 2.02
x2 = 0.1147 | 921.8 | 1.813
x2 = 0.2257 | 903 | 1.638
x2 = 0.3332 | 884.8 | 1.475
x2 = 0.4374 | 867.1 | 1.335
x2 = 0.5384 | 849.6 | 1.225
x2 = 0.6363 | 832.5 | 1.126
x2 = 0.7313 | 816 | 1.038
x2 = 0.8235 | 800 | 0.965
x2 = 0.913 | 785.9 | 0.921

O=C1CCCCC1 [cyclohexanone] + CCCOC(C)=O
[2]
Conditions | mass density [kg/m3] | viscosity [mPa·s]
x1 = 0.1036 | 888.2 | 0.609
x1 = 0.2064 | 894.2 | 0.666
x1 = 0.3084 | 900.4 | 0.731
x1 = 0.4096 | 906.5 | 0.821
x1 = 0.5099 | 912.4 | 0.926
x1 = 0.6095 | 918.4 | 1.049
x1 = 0.7083 | 924.3 | 1.199
x1 = 0.8063 | 930.2 | 1.407
x1 = 0.9035 | 936.1 | 1.685
x1 = 1 | 941.6 | 2.02

O=C1CCCCC1 [cyclohexanone] + CCOC(C)=O
[2]
Conditions | mass density [kg/m3] | viscosity [mPa·s]
x1 = 0.0907 | 898.3 | 0.47
x1 = 0.1833 | 902.6 | 0.521
x1 = 0.2778 | 907.3 | 0.585
x1 = 0.3744 | 912.3 | 0.667
x1 = 0.473 | 917.5 | 0.764
x1 = 0.5738 | 922.6 | 0.892
x1 = 0.6769 | 927.6 | 1.058
x1 = 0.7822 | 932.6 | 1.289
x1 = 0.8899 | 937.3 | 1.604
x1 = 1 | 941.6 | 2.02

O=C1CCCCC1 [cyclohexanone] + COC(C)=O
[2]
Conditions | mass density [kg/m3] | viscosity [mPa·s]
x1 = 0.0774 | 927.4 | 0.407
x1 = 0.1587 | 928.5 | 0.445
x1 = 0.2444 | 929.9 | 0.504
x1 = 0.3347 | 931.3 | 0.577
x1 = 0.4301 | 932.9 | 0.666
x1 = 0.531 | 934.6 | 0.779
x1 = 0.6378 | 936.4 | 0.936
x1 = 0.7512 | 938.2 | 1.163
x1 = 0.8717 | 940.2 | 1.488
x1 = 1 | 941.6 | 2.02

CCOC(C)=O [ethyl acetate]
[1]
Conditions | mass density [kg/m3] | viscosity [mPa·s]
– | 894.5 | 0.426

CCOC(C)=O [ethyl acetate] + C1CCCCC1
[2]
Conditions | mass density [kg/m3] | viscosity [mPa·s]
x2 = 0 | 894.5 | 0.426
x2 = 0.1042 | 877 | 0.432
x2 = 0.2074 | 861.2 | 0.436
x2 = 0.3097 | 847 | 0.441
x2 = 0.4111 | 833.9 | 0.462
x2 = 0.5115 | 822.1 | 0.493
x2 = 0.611 | 811.2 | 0.533
x2 = 0.7095 | 801.2 | 0.585
x2 = 0.8072 | 791.8 | 0.653
x2 = 0.904 | 782.7 | 0.749

CCOC(C)=O [ethyl acetate] + O=C1CCCCC1
[2], x2 = 0
Conditions | mass density [kg/m3] | viscosity [mPa·s]
– | 894.5 | 0.426

COC(C)=O [methyl ethanoate]
[1]
Conditions | mass density [kg/m3] | viscosity [mPa·s]
– | 926.8 | 0.38

COC(C)=O [methyl ethanoate] + C1CCCCC1
[2]
Conditions | mass density [kg/m3] | viscosity [mPa·s]
x2 = 0 | 926.8 | 0.38
x2 = 0.0891 | 903.7 | 0.381
x2 = 0.1804 | 883.3 | 0.383
x2 = 0.2739 | 864.7 | 0.388
x2 = 0.3698 | 848.5 | 0.407
x2 = 0.4681 | 833.1 | 0.437
x2 = 0.569 | 819.4 | 0.477
x2 = 0.6725 | 806.4 | 0.535
x2 = 0.7788 | 794.9 | 0.603
x2 = 0.8879 | 784.2 | 0.708

COC(C)=O [methyl ethanoate] + O=C1CCCCC1
[2], x2 = 0
Conditions | mass density [kg/m3] | viscosity [mPa·s]
– | 926.8 | 0.38

CCCOC(C)=O [propyl ethanoate]
[1]
Conditions | mass density [kg/m3] | viscosity [mPa·s]
– | 883 | 0.551

CCCOC(C)=O [propyl ethanoate] + C1CCCCC1
[2]
Conditions | mass density [kg/m3] | viscosity [mPa·s]
x2 = 0 | 883 | 0.551
x2 = 0.1188 | 868.5 | 0.54
x2 = 0.2328 | 854.7 | 0.548
x2 = 0.3421 | 841.8 | 0.554
x2 = 0.4472 | 829.9 | 0.572
x2 = 0.5482 | 819.3 | 0.587
x2 = 0.6454 | 809.3 | 0.625
x2 = 0.739 | 800 | 0.663
x2 = 0.8292 | 791.1 | 0.715
x2 = 0.9161 | 782.3 | 0.786

CCCOC(C)=O [propyl ethanoate] + O=C1CCCCC1
[2], x2 = 0
Conditions | mass density [kg/m3] | viscosity [mPa·s]
– | 883 | 0.551
